# Source: patent publication US5776927A, “Methionine sulfone and S-substituted cysteine sulfone derivatives as enzyme inhibitors” (Corvas International, Inc., priority 1994, dated 1998)
# Columns and labels:
# citrated rat plasma = assay: Ex vivo anticoagulant effect, activated partial thromboplastin time (APTT), rat plasma; settings: control clotting time 19.75 sec set to 1.0
# Procedure: (§1) The ex vivo anticoagulant effects of BzlSO2 -Met(SO2)-Pro-Arg-al was determined by measuring the prolongation of the activated partial thromboplastin time (APTT) over a broad concentration range of the added inhibitor, using pooled normal human and rat plasma. Fresh frozen citrated pooled normal human plasma was obtained from George King Biomedical, Overland Park, Kans. Pooled normal rat plasma was prepared from citrated whole blood collected from anesthetized rats using standard procedures. The plasma was flash frozen and stored at -80° C. until use. Measurements APTT was made using the Coag-A-Mate RA4 automated coagulometer (General Diagnostics, Organon Technica, Oklahoma City, Okla.) using the Automated APTT reagent (Organon Technica, Durham, N.C.) as the initiator of clotting according to the manufacturers instructions.
# (§2) The assay was conducted by making a series of dilutions of the test compounds in rapidly thawed plasma followed by adding 200 microliters to the wells of the assay carousel.
# citrated human plasma = assay: Ex vivo anticoagulant effect, activated partial thromboplastin time (APTT), human plasma; settings: citrated pooled normal human plasma; control clotting time 28.3 sec set to 1.0
# Procedure: as §1, §2
# [1] = system: thrombotic occlusion of the rat carotid artery; assay: Rat model of FeCl3-induced platelet-dependent arterial thrombosis; assay type: in vivo, rat (male Harlan Sprague Dawley); settings: i.v. bolus
# Description: Kurz, K. D., Main, B. W., and Sandusky, G. E., Thromb. […] In this model a platelet-rich, occlusive thrombus is formed in a segment of the rat carotid artery treated locally with a fresh solution of FeCl3 absorbed to a piece of filter paper. The FeCl3 is thought to diffuse into the treated segment of artery and causes de-endothelialization of the affected vessel surface. […] The effect of a test compound on the incidence of occlusive thrombus formation following the application of the FeCl3 is monitored by ultrasonic flowtometry and is used as the primary end point. The use of flowtometry to measure carotid artery blood flow, is a modification of the original procedure in which thermal detection of clot formation was employed. Kurz, K. D., Main, B. W., and Sandusky, G. E., Thromb. […] Male Harlan Sprague Dawley rats (420-450 g) were acclimated at least 72 hours prior to use and fasted for 12 hours prior to surgery with free access to water. […] Blood pressure, blood flow, heart rate, and respiration were monitored for 60 minutes. The incidence of occlusion (defined as the attainment of zero blood flow) was recorded as the primary end point. […] This allows a direct comparison of the antithrombotic efficacy of BzlSO2 -[…] with other antithrombotic agents which have also been evaluated in this model as described above.
compound,measurement,setting,value
"CS(=O)(=O)CC[C@H](NS(=O)(=O)Cc1ccccc1)C(=O)N1CCC[C@H]1C(=O)N[C@H](C=O)CCCNC(=N)N [Example 27, N-benzylsulfonyl-L-methionine sulfone-L-proline-L-argininal]",prolongation of the APTT,citrated rat plasma,prolonged the APTT in a dose dependent manner in both rat and human plasma
same,prolongation of the APTT,citrated human plasma,prolonged the APTT in a dose dependent manner in both rat and human plasma
same,efficacy in preventing thrombus formation (result in words),[1],reduction in the incidence of thrombotic occlusion
